These results are taken from patent US9616006B2, “Methods and compositions for treating dermatological diseases and conditions” (priority 2007, dated 2017).

One test has as its system PGE-2. As to the kind of experiment: IL-1-induced PGE-2 production in fibroblasts (ELISA). The test is classed as cell-based, human. Particulars: Homo sapiens, Fibroblast, Fibroblasts (IL-1), read-out: Percent Inhibition of PGE-2. The protocol: (§1) In one study, various concentrations of DHE were added to culture medium and these media were placed on human fibroblast cell cultures (results shown in FIG. 1). […] At 24 hours after treatment, the cell culture medium was removed and assayed by ELISA methods for the expression of PGE-2, various cytokines and chemokines.
(§2) DHE and IE both have inhibitory effects on the production of the inflammatory mediators in fibroblasts.
For orientation: An ELISA detects its analyte on a solid surface through an enzyme-linked reagent.

The subject of test [1] is HAS-2 (Hyaluronic acid synthase-2). Description: HAS-2 mRNA in fibroblasts by RT-PCR. In kind it is cell-based, human. Particulars: 72 hours. The text has this: (§3) The presently claimed and disclosed inventive concept(s) further contemplates use of various DHE, IE and EV compositions and salts, esters, ethers, and derivatives thereof to mitigate the effects of aging on the skin. For all aging studies, normal human fibroblast cell cultures were used. These cells normally produce collagen, elastin and hyaluronic acid. As the skin ages, the fibroblasts in the dermis lose their ability to produce these three key components of skin, and the skin consequently loses elasticity, thickness and smooth texture. In addition, as fibroblasts age, they increase the expression of certain enzymes that destroy collagen and elastin. There are about 13 of these enzymes, collectively referred to as MMPs (matrix metalloproteinases). One of the principal MMPs, MMP-1, is responsible for collagen degradation. For experiments herein to determine the effects of DHE, IE and EV on collagen, elastin and hyaluronic acid, fibroblasts were treated with the compounds for 72 hours, mRNA was then isolated, and analyzed for abundance by RT-PCR (Reverse transcriptase-Polymerase Chain Reaction).
DHE, IE and EV, are also shown herein to stimulate mRNA for HAS-2. HAS-2 (Hyaluronic acid synthase-2) is the enzyme that manufactures hyaluronic acid (HA) in the skin. HA is a glycosaminoglycan important for maintaining moisture and suppleness in the skin. […] As the skin ages, the production of HA decreases and this causes the skin to sag and become thin.

The subject of the next test is IL-12. As to the kind of experiment: TNF-α-induced IL-12 production in monocytes. In kind it is cell-based. Particulars: Monocyte, read-out: Percent Inhibition of IL-12. From the text:
(§4) DHE and IE both have inhibitory effects on the production of the inflammatory mediators in monocytes.

Another test deals with collagen 1 mRNA. As to the kind of experiment: Collagen mRNA in fibroblasts by RT-PCR. The test is classed as cell-based, human. Particulars: fibroblast cell cultures treated 72 hours.
Text: as §3, with “[…] Fibroblast cell cultures” for “For experiments herein to determine the effects of DHE, IE and EV on collagen, elastin and hyaluronic acid, fibroblasts”, “either IE, DHE or EV” for “the compounds”, “hours at which time the amount of collagen” for “hours,”, “mRNA present in the cells” for “mRNA”, “determined.” for “then isolated, and analyzed for abundance by RT-PCR (Reverse transcriptase-Polymerase Chain Reaction).”

The test system of a further test is IL-8. As to the kind of experiment: UV-induced IL-8 production in fibroblasts (ELISA). In kind it is cell-based, human. Particulars: Homo sapiens, Fibroblast, read-out: Percent Inhibition of IL-8. The protocol: (§5) In one study, various concentrations of DHE were added to culture medium and these media were placed on human fibroblast cell cultures (results shown in FIG. 1). Cells were either not induced or induced with UVB radiation to stimulate cytokine/PGE-2 production. At 24 hours after treatment, the cell culture medium was removed and assayed by ELISA methods for the expression of PGE-2, various cytokines and chemokines.
as §2

For another test, the system named is MCP-1. Description: LPS-induced MCP-1 production in monocytes. In kind it is cell-based. Particulars: Monocyte; Monocytes (LPS); 100 uM; read-out: Percent Inhibition of MCP-1.
Text: as §4

Another test relates to TNF-α. As to the kind of experiment: TPA-induced TNF-α production in keratinocytes (ELISA). Particulars: Homo sapiens, Keratinocyte; Keratinocytes (TPA); 100 uM; read-out: Percent Inhibition of TNF-α. The test is classed as cell-based, human. The protocol: as §5
(§6) When similar experiments were carried out with human keratinocytes, DHE was again found to markedly suppress the UVR induction of PGE-2, with a concentration of 50 uM inhibiting the production of PGE-2 by over 60% (results shown in FIG. 2). […] Further, since PGE-2 is known to be a principal factor in the development of actinic keratosis and skin cancer, DHE can also be used in treating these conditions.
Inflammatory mediators produced in the skin contribute to the development and propagation of such diseases as rosacea, psoriasis and atopic dermatitis. While many inflammatory mediators are involved in these diseases, TNF-α is known to be a major cytokine involved in psoriasis. For atopic dermatitis, TNF-α, IL-8, and MCP-1 are important mediators of inflammation in these diseases. DHE is effective in suppressing the TPA-induced (TPA is tetradecanolyl phorbol ester) production of TNF-α by approximately 50% at a 100 micromolar concentration (results shown in FIG. 3).
(§7) DHE and IE both have inhibitory effects on production of the inflammatory mediators in keratinocytes.

For test [2], the system named is IL-6. As to the kind of experiment: IL-1-induced IL-6 production in fibroblasts (ELISA). Particulars: Homo sapiens, Fibroblast, Fibroblasts (IL-1), read-out: Percent Inhibition of IL-6. In kind it is cell-based, human. The protocol: as §1, §2
Test [3] relates to IL-6. Description: UV-induced IL-6 production in keratinocytes (ELISA). In kind it is cell-based, human. Particulars: Homo sapiens, Keratinocyte, read-out: Percent Inhibition of IL-6. As to the method: as §5, §6, §7
For another test, the system named is PGE2. Description: UV-induced PGE2 production in keratinocytes (ELISA). The test is classed as cell-based, human. Particulars: Homo sapiens, Keratinocyte; Keratinocytes (UV); 100 uM; read-out: Percent Inhibition of PGE2. The protocol: as §5, §6, §7
For the next test, the system named is tyrosinase. Description: Western immunoblot of tyrosinase abundance in human melanocyte extracts. In kind it is cell-based. The text has this: FIGS. 14-17 show the skin-lightening effects of topically-applied formulations of isoeugenol and its ester isoeugenol acetate (a.k.a. isoeugenyl acetate) in the treatment of hyperpigmented areas in the skin, wherein a reduction of melanin pigment in the skin is caused by the topical application of the formulations. In addition to blocking a post-tyrosinase step in melanin synthesis, IE and IE acetate can inhibit the expression of the tyrosinase protein in human melanocytes. […] If the cell extracts contain tyrosinase when an aliquot of extract is placed in a tube containing L-DOPA (a tyrosinase substrate) in buffer, the enzyme will convert the DOPA to melanin. The melanin will appear brownish-black in the assay tube. If IE or IE-acetate has inhibited tyrosinase synthesis in melanocytes, then the extracts from these cells will contain no enzyme and will not be able to produce melanin from DOPA in the assay tube. […] In this assay, cell extracts from human melanocytes either left untreated or treated with 200 micromolar of either IE or isoeugenol acetate for 9 days are run on SDS polyacrylamide electrophoresis gels to separate tyrosinase from other proteins. The tyrosinase in the gel is then blotted to a membrane and the tyrosinase detected by staining with a specific anti-tyrosinase antibody. The antibody-bound tyrosinase is then visualized by chemiluminescence.
For orientation: Immunoblotting shows a protein as a band on a membrane.

As to `CC=Cc1ccc(O)c(OC)c1` [IE, isoeugenol], the inhibition at 100 µM in the test with PGE-2 amounted to 81%; in the test on IL-12, 100%; with IL-8 it was 2%; in the test on MCP-1, 87%; with TNF-α, 71%; in the test on IL-6 [2], 53%. Further, the inhibition at 100 µM with IL-6 [3] is 93%; in the test on PGE2, 76%. Moreover, the “mRNA for HAS-2” value in [1] was “stimulate”. The “collagen production (collagen mRNA)” value in the test with collagen 1 mRNA was “stimulation”. Also, the “tyrosinase abundance (relative densitometric units)” value in the test on tyrosinase (human melanocyte extracts, 200 μM, 9 days, control approximately 7.25 RDU) is “about 3 RDU”. The “tyrosinase present (western immunoblot)” value with tyrosinase (human melanocytes treated with 200 micromolar for 9 days) is “almost no detectable tyrosinase”.

Usually inhibition stands for the relative decrease from the control value, in per cent.
